Assay: Log P by HPLC on reversed phase columns (EEC directive 79/831 Annex V.A8)
Assay type: physicochemical
Conditions: method [a]
Outline: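 Values come from retention times calibrated against alkan-2-ones (3–16 carbons) by linear interpolation, using reversed-phase LC-UV per EEC directive 79/831 Annex V.A8. Acetonitrile gradient 10–95% with 0.1% formic acid [a], 0.001 M ammonium acetate [b] or 0.1% phosphoric acid [c]; several values within one method separated by "+".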

| Compound | LogP |
| --- | --- |
| COC(=O)C(C1CC1)N(O)C(=O)c1sc(Cl)c(Cl)c1Br (stereo not drawn) [1.0544] | 3.05^[a] |
| CCOC(=O)C[C@H](NC(=O)c1sc(Br)c(Br)c1Cl)C(=O)OCC [1.0545] | 4.15^[a] |
| COC(=O)C[C@H](NC(=O)c1sc(Br)c(Br)c1Cl)C(=O)OC [1.0546] | 3.33^[a] |
| CCOC(=O)C(CSC(C)=O)NC(=O)c1sc(Cl)c(Cl)c1Br (stereo not drawn) [1.0547] | 3.46^[a] |
| COC(=O)C[C@H](NC(=O)c1sc(Cl)c(Cl)c1Br)C(=O)OC [1.0548] | 3.33^[a] |
| COC(=O)CC[C@H](NC(=O)c1sc(Cl)c(Cl)c1Br)C(=O)OC [1.0549] | 3.41^[a] |
| CCOC(=O)C(CSC)NC(=O)c1sc(Br)c(Br)c1Cl (stereo not drawn) [1.0550] | 4.32^[a] |
| CCOC(=O)C[C@H](NC(=O)c1sc(Cl)c(Cl)c1Br)C(=O)OCC [1.0551] | 4.17^[a] |
| COC(=O)[C@H](CC(=O)OC(C)(C)C)NC(=O)c1sc(Cl)c(Cl)c1Br [1.0552] | 4.59^[a] |
| COC(=O)C(CCSC(C)=O)NC(=O)c1sc(Br)c(Br)c1F (stereo not drawn) [1.0553] | 3.13^[a] |
| CCOC(=O)C(CSC(C)=O)NC(=O)c1sc(Br)c(Br)c1F (stereo not drawn) [1.0554] | 3.18^[a] |
| COC(=O)C[C@H](NC(=O)c1sc(Br)c(Br)c1F)C(=O)OC [1.0555] | 2.99^[a] |
| CCOC(=O)C(CSC)NC(=O)c1sc(Br)c(Br)c1F (stereo not drawn) [1.0556] | 3.87^[a] |
| COC(=O)CC[C@H](NC(=O)c1sc(Br)c(Br)c1F)C(=O)OC [1.0557] | 3.07^[a] |
| CCOC(=O)C[C@H](NC(=O)c1sc(Br)c(Br)c1F)C(=O)OCC [1.0558] | 3.76^[a] |
| CCOC(=O)CC[C@H](NC(=O)c1sc(Br)c(Br)c1F)C(=O)OCC [1.0559] | 3.84^[a] |
| COC(=O)[C@H](CC(=O)OC(C)(C)C)NC(=O)c1sc(Br)c(Br)c1F [1.0560] | 4.12^[a] |
| CCOC(=O)C(CSC(C)=O)NC(=O)c1sc(Br)c(Br)c1Cl (stereo not drawn) [1.0561] | 3.44^[a] |
| CCOC(=O)CC[C@H](NC(=O)c1sc(Cl)c(Cl)c1Br)C(=O)OCC [1.0562] | 4.25^[a] |
| N#CNC(=O)CNC(=O)c1sc(Br)c(Br)c1F [1.0563] | 2.17^[a] |
| COC(=O)CNC(=O)c1sc(C)c(Cl)c1Cl [1.0564] | 2.45^[a] |
| COC(=O)C1(NC(=O)c2sc(C#N)c(Br)c2Cl)CCC1 [1.0565] | 2.98^[a] |
| CCOC(=O)C1(NC(=O)c2sc(C#N)c(Br)c2Cl)CCC1 [1.0566] | 3.38^[a] |
| CCCOC(=O)C1(NC(=O)c2sc(C#N)c(Br)c2Cl)CC1 [1.0567] | 3.18^[a] |

| Compound | LogP |
| --- | --- |
| N#Cc1sc(C(=O)NC2(C(=O)OC3CCC3)CC2)c(Cl)c1Br [1.0568] | 3.32^[a] |
| N#CCNC(=O)c1sc(C#N)c(Br)c1Cl [1.0569] | 2.08^[a] |
| CCOC(=O)CNC(=O)c1sc(C#N)c(Cl)c1Cl [1.0570] | 2.60^[a] |
| COC(=O)CNC(=O)c1sc(C#N)c(Cl)c1Cl [1.0571] | 2.20^[a] |
| CCOC(=O)C1(NC(=O)c2sc(C#N)c(Cl)c2Cl)CC1 [1.0572] | 2.76^[a] |
| COC(=O)C1(NC(=O)c2sc(C#N)c(Cl)c2Cl)CC1 [1.0573] | 2.40^[a] |
| COC(=O)C(C)(C)NC(=O)c1sc(C#N)c(Cl)c1Cl [1.0574] | 2.90^[a] |
| CCOC(=O)C(NC(=O)c1sc(C#N)c(Cl)c1Cl)C(C)C (stereo not drawn) [1.0575] | 3.89^[a] |
| COC(=O)C(NC(=O)c1sc(C#N)c(Cl)c1Cl)C1CC1 (stereo not drawn) [1.0576] | 3.05^[a] |
| CCOC(=O)C(Cc1ccccc1)NC(=O)c1sc(C#N)c(Cl)c1Cl (stereo not drawn) [1.0577] | 4.11^[a] |
| COC(=O)C1(NC(=O)c2sc(C#N)c(Cl)c2Cl)CCC1 [1.0578] | 2.94^[a] |
| CCOC(=O)C1(NC(=O)c2sc(C#N)c(Cl)c2Cl)CCC1 [1.0579] | 3.35^[a] |
| CCCOC(=O)C1(NC(=O)c2sc(C#N)c(Cl)c2Cl)CC1 [1.0580] | 3.15^[a] |
| N#Cc1sc(C(=O)NC2(C(=O)OC3CCC3)CC2)c(Cl)c1Cl [1.0581] | 3.30^[a] |
| N#CCNC(=O)c1sc(C#N)c(Cl)c1Cl [1.0582] | 2.04^[a] |
| CCOC(=O)CNC(=O)c1sc(Cl)c(Br)c1C#N [1.0583] | 2.56^[a] |
| COC(=O)CNC(=O)c1sc(Cl)c(Br)c1C#N [1.0584] | 2.20^[a] |
| CCOC(=O)C1(NC(=O)c2sc(Cl)c(Br)c2C#N)CC1 [1.0585] | 2.70^[a] |
| CCOC(=O)C(Cc1ccccc1)NC(=O)c1sc(C#N)c(Br)c1Cl (stereo not drawn) [1.0586] | 4.13^[a] |
| COC(=O)C(NC(=O)c1sc(C#N)c(Br)c1Cl)C1CC1 (stereo not drawn) [1.0587] | 3.08^[a] |
| CCOC(=O)C(NC(=O)c1sc(C#N)c(Br)c1Cl)C(C)C (stereo not drawn) [1.0588] | 3.92^[a] |
| COC(=O)C(C)(C)NC(=O)c1sc(C#N)c(Br)c1Cl [1.0589] | 2.93^[a] |
| Cc1c(C(=O)NC2(C(=O)OC3CCC3)CC2)sc(Cl)c1Br [1.0590] | 3.81^[a] |
| CCCOC(=O)C1(NC(=O)c2sc(Br)c(Cl)c2F)CC1 [1.0591] | 3.56^[a] |

| Compound | LogP |
| --- | --- |
| O=C(NC1(C(=O)OC2CCC2)CC1)c1sc(Br)c(Cl)c1F [1.0592] | 3.72^[a] |
| CCCOC(=O)C1(NC(=O)c2sc(Cl)c(Br)c2Br)CC1 [1.0593] | 3.98^[a] |
| O=C(NC1(C(=O)OC2CCC2)CC1)c1sc(Cl)c(Br)c1Br [1.0594] | 4.20^[a] |
| COC(=O)C1(NC(=O)c2sc(Cl)c(Br)c2Cl)CC1 [1.0595] | 3.11^[a] |
| CCCOC(=O)C1(NC(=O)c2sc(Cl)c(Br)c2Cl)CC1 [1.0596] | 3.98^[a] |
| O=C(NC1(C(=O)OC2CCC2)CC1)c1sc(Cl)c(Br)c1Cl [1.0597] | 4.15^[a] |
| CCCOC(=O)C1(NC(=O)c2cc(Cl)c(Br)s2)CC1 [1.0598] | 3.28^[a] |
| O=C(NC1(C(=O)OC2CCC2)CC1)c1cc(Cl)c(Br)s1 [1.0599] | 3.43^[a] |
| COC(=O)C1(NC(=O)c2sc(Cl)c(Br)c2C#N)CC1 [1.0600] | 2.36^[a] |
| CCCOC(=O)C1(NC(=O)c2cc(Br)c(Cl)s2)CC1 [1.0601] | 3.43^[a] |
| COC(=O)C1(NC(=O)c2sc(C#N)c(Br)c2Cl)CC1 [1.0602] | 2.44^[a] |
| COC(=O)C1(NC(=O)c2sc(Cl)c(Br)c2F)CC1 [1.0603] | 2.70^[a] |
| CCOC(=O)CNC(=O)c1sc(C#N)c(Br)c1Cl [1.0604] | 2.63^[a] |
| COC(=O)CNC(=O)c1sc(C#N)c(Br)c1Cl [1.0605] | 2.24^[a] |
| CCOC(=O)C1(NC(=O)c2sc(C#N)c(Br)c2Cl)CC1 [1.0606] | 2.79^[a] |
| O=C(NC1(C(=O)OC2CCC2)CC1)c1cc(Br)c(Cl)s1 [1.0607] | 3.46^[a] |
| COC(=O)C(C)(C)NC(=O)c1sc(Cl)c(Br)c1C#N [1.0608] | 2.77^[a] |
| CCOC(=O)C(NC(=O)c1sc(Cl)c(Br)c1C#N)C(C)C (stereo not drawn) [1.0609] | 3.81^[a] |
| COC(=O)C(NC(=O)c1sc(Cl)c(Br)c1C#N)C1CC1 (stereo not drawn) [1.0610] | 2.93^[a] |
| CC(C)OC(=O)C1(NC(=O)c2sc(Cl)c(Cl)c2Br)CCC1 [1.0611] | 4.69^[a] |
| COC(=O)C1(NC(=O)c2sc(Cl)c(Cl)c2Br)CC(C)(C)C1 [1.0612] | 4.50^[a] |
| COC(=O)C1(NC(=O)c2sc(Cl)c(Cl)c2Br)CCC1 [1.0613] | 3.67^[a] |
| CC(C)(C)OC(=O)C1(NC(=O)c2sc(Cl)c(Cl)c2Br)CC(F)(F)C1 [1.0614] | 4.83^[a] |
| O=C(NC(C(=O)OCc1ccccc1)C1CC1)c1sc(Br)c(Br)c1Cl (stereo not drawn) [1.0615] | 5.07^[a] |

| Compound | LogP |
| --- | --- |
| CC(C)OC(=O)C1(NC(=O)c2sc(Br)c(Br)c2Cl)CCC1 [1.0616] | 4.71^[a] |
| O=C(NC(C(=O)OCc1ccccc1)C1CC1)c1sc(Cl)c(Cl)c1Br (stereo not drawn) [1.0617] | 5.10^[a] |
| COC(=O)C1(NC(=O)c2sc(Br)c(Br)c2Cl)CC(C)(C)C1 [1.0618] | 4.52^[a] |
| O=C(NC(C(=O)OCc1ccccc1)C1CC1)c1sc(Br)c(Br)c1F (stereo not drawn) [1.0619] | 4.63^[a] |
| CC(C)OC(=O)C1(NC(=O)c2sc(Br)c(Br)c2F)CCC1 [1.0620] | 4.23^[a] |
| COC(=O)C1(NC(=O)c2sc(Br)c(Br)c2F)CC(C)(C)C1 [1.0621] | 4.12^[a] |
| COC(=O)C1(NC(=O)c2sc(Br)c(Br)c2F)CC(F)(F)C1 [1.0622] | 3.37^[a] |
| CC(C)(C)OC(=O)C1(NC(=O)c2sc(Br)c(Br)c2F)CC(F)(F)C1 [1.0623] | 4.46^[a] |
| COC(=O)C1(NC(=O)c2sc(Br)c(Br)c2Cl)CC(F)(F)C1 [1.0624] | 3.69^[a] |
| CCCOC(=O)C1(NC(=O)c2sc(Cl)c(Br)c2C)CC1 [1.0625] | 3.62^[a] |
| NC(=O)CNC(=O)c1sc(Cl)c(Cl)c1Br [1.0626] | 1.98^[a] |
| COC(=O)C(C)(C)NC(=O)c1sc(Br)c(C(F)F)c1Br [1.0627] | 3.22^[a] |
| CCOC(=O)C(Cc1ccccc1)NC(=O)c1sc(Cl)c(Br)c1C#N (stereo not drawn) [1.0628] | 4.00^[a] |
| COC(=O)C1(NC(=O)c2sc(Cl)c(Br)c2C#N)CCC1 [1.0629] | 2.82^[a] |
| CCOC(=O)C1(NC(=O)c2sc(Cl)c(Br)c2C#N)CCC1 [1.0630] | 3.20^[a] |
| CCCOC(=O)C1(NC(=O)c2sc(Cl)c(Br)c2C#N)CC1 [1.0631] | 3.06^[a] |
| N#Cc1c(C(=O)NC2(C(=O)OC3CCC3)CC2)sc(Cl)c1Br [1.0632] | 3.21^[a] |
| N#CCNC(=O)c1sc(Cl)c(Br)c1C#N [1.0633] | 2.07^[a] |
| CCOC(=O)CNC(=O)c1sc(Cl)c(Br)c1F [1.0634] | 2.88^[a] |
| COC(=O)CNC(=O)c1sc(Cl)c(Br)c1F [1.0635] | 2.49^[a] |
| CCOC(=O)C1(NC(=O)c2sc(Cl)c(Br)c2F)CC1 [1.0636] | 3.10^[a] |
| COC(=O)C(C)(C)NC(=O)c1sc(Cl)c(Br)c1F [1.0637] | 3.27^[a] |
| NC(=O)CNC(=O)c1sc(Br)c(Br)c1Cl [1.0638] | 1.98^[a] |
| CCOC(=O)C(NC(=O)c1sc(Cl)c(Br)c1F)C(C)C (stereo not drawn) [1.0639] | 4.40^[a] |

Reference: patent publication US12642270B2, “Substituted thiophene carboxamides, thiophene carboxylic acids and derivatives thereof” (Bayer Aktiengesellschaft, priority 2019, dated 2026)
